Measured values published in PMC4641600, “Novel Activities of Select NSAID R-Enantiomers against Rac1 and Cdc42 GTPases” (PLoS ONE, 2015).
pIC50: −log10 of the molar value.

Tests used:
[1] = biological target: Rac1 wt (Homo sapiens, UniProt P63000); experiment: Dose response, BODIPY-GTP binding; settings: 10 nM to 100 µM
[2] = biological target: Rac1Q61L activating mutant (Homo sapiens, UniProt P63000, Q61L); experiment: Dose response, BODIPY-GTP binding; settings: 10 nM to 100 µM
[3] = biological target: H-RasG12V (Homo sapiens, UniProt P01112, G12V); experiment: Dose response, BODIPY-GTP binding; settings: 10 nM to 100 µM
Description: (§1) For multiplex analyses of small GTPases, 4 μm diameter glutathione-beads (GSH-beads) distinguished by seven different intensities of red fluorescence were used according to our previously described protocols. The GST-GTPases included the following eight Ras-related small GTPases: Rab2 wt, Rab7 wt, Cdc42 wt, Cdc42Q61L activating mutant, H-Ras wt, H-RasG12V, Rac1 wt and Rac1Q61L activating mutant. Briefly, Prestwick Chemical Library® compounds were tested at 10 μM compound and 1% DMSO final concentrations. After a 10 min pre-incubation with the compound BODIPY- FL-GTP (100 nM final) was added to each well and bead associated fluorescence was measured. Sample analysis was conducted with a HyperCyt® high throughput flow cytometry platform. Flow cytometric light scatter at 488 nm and fluorescence emission at 530 +/− 20 nm (FL1) and 665 +/− 10 nm (FL8) were collected on a Cyan ADP flow cytometer (Beckman Coulter, Fullerton, CA). IDLQuery software was used to determine the compound activity in each well. Gating based on forward scatter (FS) and side scatter (SS) parameters was used to identify singlet bead populations. Gating based on FL8 emission distinguishes the beads coated with different proteins, and the median FL1 fluorescence per bead population were calculated. A compound was considered a “potential active” if the change in BODIPY-FL-GTP binding differed greater than 20% from that measured in DMSO treated controls.
(§2) Test compounds identified for follow-up after the primary screen were tested at dilutions ranging from 10 nM to 100 μM final concentration against individual GTPases in multiplex and single-plex assays. Compounds tested in dose response assays were serially diluted 1:3 a total of eight times from a starting concentration of 10 mM giving a 9-point dilution series in DMSO.
(§3) bConfirmatory screens entailed dose response assays conducted in a multiplex format with eight GTPases tested as for primary screen. BODIPY-GTP-binding activity was
(§4) measured in the presence of 10 nM to 100 µM of each of 11 test compounds (4 primary screen hits and 7 additional NSAIDs considered to have chemical similarity to GTPase
(§5) active compounds). GST-GFP coated beads served as a control to detect non-specific dissociation or denaturation caused by compound addition–none of the tested NSAIDs had
(§6) any effect on bead-GST-protein binding. EC50 values were determined using Prism to determine dose response fits as shown in Figure 1 of main text; fits have R2 > 0.9. Active
(§7) compounds based on same definition used as in primary screena. […]
(§8) ‡A well-characterized selective Cdc42 inhibitor served as a positive control.

[4] = test system: Ras-related GTPases; experiment: Confirmatory dose response assays on eight Ras-related GTPases; assay type: binding
Description: as §1, §2, §3, §4, §5, §6, §7, §8

[5] = biological target: T1, Rac1 (Homo sapiens, UniProt P63000); experiment: G-trap flow cytometric effector binding assay, HeLa cells; assay type: cell-based
T1 construct: endogenous in cells; host or cells: HeLa

[6] = biological target: T1, Rac1; experiment: GLISA, OvCa433 cells; assay type: cell-based; settings: 300 μM, 1 h pretreatment, 10 ng/ml EGF 2 min
[7] = biological target: T2, human COX-2 (Homo sapiens, UniProt P35354); experiment: Cyclooxygenase assay (CEREP), PGE2 formation; assay type: biochemical; settings: recombinant enzyme, 4 μM arachidonic acid
T2 construct: purchased CEREP Laboratories (contract assay); host or cells: Sf-9
T2 sequence (P35354 18-604): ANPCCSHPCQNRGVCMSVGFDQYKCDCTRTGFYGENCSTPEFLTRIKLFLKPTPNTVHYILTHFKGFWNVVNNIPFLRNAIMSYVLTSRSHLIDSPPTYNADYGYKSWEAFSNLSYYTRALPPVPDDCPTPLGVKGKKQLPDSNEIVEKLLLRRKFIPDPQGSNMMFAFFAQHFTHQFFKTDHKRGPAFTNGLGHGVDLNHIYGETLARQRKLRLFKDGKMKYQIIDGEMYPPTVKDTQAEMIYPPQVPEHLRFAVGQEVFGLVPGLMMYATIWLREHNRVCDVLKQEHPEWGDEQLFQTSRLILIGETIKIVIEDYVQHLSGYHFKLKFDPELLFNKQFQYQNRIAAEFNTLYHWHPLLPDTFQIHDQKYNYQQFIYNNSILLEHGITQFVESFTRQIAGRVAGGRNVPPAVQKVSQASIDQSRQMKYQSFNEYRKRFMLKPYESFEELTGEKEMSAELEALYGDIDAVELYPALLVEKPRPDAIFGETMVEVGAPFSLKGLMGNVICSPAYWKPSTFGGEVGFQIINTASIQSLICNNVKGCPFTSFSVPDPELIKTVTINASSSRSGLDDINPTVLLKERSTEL

[8] = test system: Tiam1 membrane localization; experiment: Tiam1 immunolocalization, OvCa433 cells; assay type: cell-based, human
Description: OvCa433 were plated on coverslips, treated with 300 μM NSAIDs for 1 h, fixed with 3% paraformaldehyde and immunostained for Rac1 or Tiam1. Actin was visualized with rhodamine phalloidin from Invitrogen (F432). Cells were imaged on a Zeiss LSM510 using a 63x objective and quantified using Image J.
Rac1 and Tiam1 antibodies were confirmed in our hands to recognize single protein species of the predicted molecular weight by immunoblot.

[9] = test system: Rac1 and Tiam1 protein levels; experiment: Immunoblot of protein levels; assay type: cell-based, human
Description: Cells were stimulated with EGF at a final concentration of 1 nM for 10 min. Cells were lysed in a RIPA buffer consisting of 50 mM Tris pH 7.4, 1% NP-40, 0.25% sodium deoxycholate, 150 mM NaCl, 1 mM EDTA, 1 mM PMSF, 1 mM sodium vanadate, 10 mM sodium fluoride, 1 μg/mL each of pepstatin, aprotinin and leupeptin, 10 mM sodium pyrophosphate and 10 mM beta-glycerophosphate.
N = 3. See also Figure D in S1 File for time dependent loss of Rac1 membrane localization. N = 3 (B) Quantification of image intensity using Image J of 3 representative confocal images as shown in panel (A) containing 20–30 cells/field normalized to actin and untreated controls. (C) Western blot analyses of lysates from cells treated with 300 μM compound as indicated for 24 h as compared to untreated controls. […] Blots were probed for Tiam1 (200 kDa), GAPDH (37 kDa), Rac1 (20 kDa), as a loading control. (D) Quantification of image intensity using Image J. Each marker was normalized to GAPDH and untreated controls. N = 3.

[10] = typical oral dosing (S-Naproxen 500 mg; 6-MNA 750-20000 mg of nabumetone); ref Roche Investigator’s brochure, 9, 10, 17-19, 21, 23; cited from earlier work

- Rac1 wt EC50 [1]: inactive
- Rac1 (act) EC50 [2]: inactive
- H-Ras (act) EC50 [3]: inactive
- fold lower potency than R-naproxen, Rac1 [5]: up to 6 fold
- Rac1 activation by EGF [6]: no or limited effect
- pIC50 [7]: < 4.00
Structure (SMILES): COc1ccc2cc(CC(=O)O)ccc2c1 [6-MNA, 6-methoxy-2-napthalene acetic acid]
- activity against the GTPases in confirmatory dose response assays (words) ([4]; 10 nM to 100 µM): lacked activity
- activity against the GTPases in confirmatory dose response assays (words) ([4]; 10 nM to 100 μM, listed as 6MNA): inactive
- effect ([4]; at 0.1 mM, against all GTPases): less than 20%
- Tiam1 membrane localization ([8]; 300 μM): only slightly reduced
- Tiam1 GEF PM localiz. ([8]; immunofluorescence quantified using ImageJ): 73%
- total Rac1 or Tiam1 protein levels ([9]; 300 μM, 24 h, immunoblot): did not alter
- Rac protein expression ([9]; immunoblot analysis): No change
- Serum Cmax [10]: 41200 ng/mL
